This is an account of results in PubChem BioAssay (NCI).

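A five-concentration, 48-hour dose response in 96-well plates underlies each endpoint, interpolated linearly between surrounding concentrations. Abbreviation: GI50, concentration required for 50% inhibition of growth. The concentration for full growth arrest is given as TGI.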

Among the test systems are NCI-H460 lung; T-47D breast; KM12 colon; MOLT-4 leukemia; PC-3 prostate; EKVX NSCLC; UACC-62 melanoma; BT-549 breast; SNB-19 CNS; 786-0 renal.
Test in all cases: NCI-60 cell line screen, 48 h

For the molecule `C/C1=C\C/C=C(\C)[C@H]2CC(CC/C(C)=C/CC1)[C@](C)(C=O)O2`, the GI50 in the assay on NCI-H460 lung was 85.1 µM; in the assay with T-47D breast, greater than 100 µM; with KM12 colon, greater than 100 µM; in the assay with MOLT-4 leukemia, 21 µM; with PC-3 prostate, 88.2 µM; with EKVX NSCLC, greater than 100 µM. The GI50 in the assay with UACC-62 melanoma was greater than 100 µM; with BT-549 breast, 20.9 µM; in the assay on SNB-19 CNS it was greater than 100 µM; in the assay with 786-0 renal, greater than 100 µM. Besides, the TGI with NCI-H460 lung, in the assay with T-47D breast, in the assay on KM12 colon, in the assay with MOLT-4 leukemia, in the assay on PC-3 prostate and in the assay on EKVX NSCLC was greater than 100 µM each time. In addition, the TGI in the assay with UACC-62 melanoma, in the assay with BT-549 breast, in the assay on SNB-19 CNS and in the assay on 786-0 renal was greater than 100 µM in each case.

Take `NCCP(=O)(O)O`: the TGI with NCI-H460 lung, with T-47D breast, in the assay on KM12 colon, with MOLT-4 leukemia, in the assay with PC-3 prostate and with EKVX NSCLC was greater than 100 µM each time. The TGI in the assay with UACC-62 melanoma, in the assay on BT-549 breast, in the assay with SNB-19 CNS and in the assay on 786-0 renal was greater than 100 µM in each case.

For `NC(Cc1ccnnc1)C(=O)O` (stereo unspecified), the TGI with NCI-H460 lung, in the assay with T-47D breast, in the assay with KM12 colon, in the assay on MOLT-4 leukemia, with PC-3 prostate and in the assay with EKVX NSCLC was greater than 100 µM each time. Further, the TGI with UACC-62 melanoma, in the assay on BT-549 breast, in the assay with SNB-19 CNS and with 786-0 renal was greater than 100 µM throughout.

Take `CCc1c(O)c2c(c(O)c1C(C)=O)C(=O)c1c(cc(O)c(C(=O)O)c1C(=O)O)C2=O`: the TGI in the assay with NCI-H460 lung, with T-47D breast, with KM12 colon, with MOLT-4 leukemia, in the assay on PC-3 prostate and with EKVX NSCLC was greater than 100 µM each time. Also, the TGI in the assay on UACC-62 melanoma, with BT-549 breast, in the assay with SNB-19 CNS and with 786-0 renal was greater than 100 µM throughout.

Turning to `COC(=O)OCc1ccc2c(c1)C(=O)c1c-2n(CCCBr)c(=O)c2cc([N+](=O)[O-])ccc12`, the GI50 in the assay on NCI-H460 lung is greater than 100 µM; with T-47D breast, greater than 100 µM; in the assay with KM12 colon, greater than 100 µM; in the assay with MOLT-4 leukemia it was 31.6 µM; with PC-3 prostate it was greater than 100 µM; in the assay on EKVX NSCLC, 74.3 µM. Also, the GI50 with UACC-62 melanoma is 33.5 µM; with BT-549 breast, 44.9 µM; with SNB-19 CNS, 79 µM; in the assay with 786-0 renal it was 31.7 µM. Further, the TGI in the assay on NCI-H460 lung, with T-47D breast, in the assay on KM12 colon, in the assay on MOLT-4 leukemia, in the assay on PC-3 prostate and in the assay on EKVX NSCLC was greater than 100 µM in each case. The TGI with UACC-62 melanoma was greater than 100 µM; in the assay on BT-549 breast, greater than 100 µM; in the assay on SNB-19 CNS, greater than 100 µM; in the assay with 786-0 renal, 92 µM.

Turning to `CNC(=O)OC1C(O[C@H]2C[C@H]3[C@@H]4CC=C5C[C@@H](O)CC[C@]5(C)[C@H]4CC[C@]3(C)[C@H]2[C@H](C)C(=O)CCC(C)C)OCC(O)C1OC1OCC(O)C(O)C1OC(=O)c1ccc(OC)cc1` (stereo partly specified), the GI50 with NCI-H460 lung was 0.0115 µM; in the assay on T-47D breast, 0.035 µM; with KM12 colon, 0.106 µM; with MOLT-4 leukemia it was 0.00824 µM; in the assay with PC-3 prostate it was 0.01 µM; in the assay on EKVX NSCLC it was 0.0396 µM. For the same molecule, the GI50 in the assay with UACC-62 melanoma is 0.00688 µM; in the assay with BT-549 breast, less than 0.00275 µM; in the assay on SNB-19 CNS it was 0.0204 µM; in the assay on 786-0 renal, 0.00341 µM. For the same molecule, the TGI in the assay with NCI-H460 lung is 0.491 µM; with T-47D breast it was 3.69 µM; with KM12 colon, 4.97 µM; with MOLT-4 leukemia, 0.0242 µM; with PC-3 prostate, 0.447 µM; with EKVX NSCLC, 3.47 µM. The TGI stood at 0.0188 µM with UACC-62 melanoma, 3.49 µM in the assay with BT-549 breast, 3.89 µM in the assay with SNB-19 CNS and 0.652 µM in the assay with 786-0 renal.

Regarding `C1=C(c2ccccc2)C(c2ccc(OCCN3CCCCC3)cc2)Oc2ccccc21` (stereo unspecified), the GI50 in the assay on NCI-H460 lung was 1.94 µM; in the assay on T-47D breast, 1.04 µM; in the assay on KM12 colon, 1.74 µM; in the assay with MOLT-4 leukemia, 2.37 µM; in the assay on PC-3 prostate, 1.79 µM; in the assay on EKVX NSCLC it was 1.54 µM. Moreover, the GI50 was 1.92 µM with UACC-62 melanoma, 1.61 µM with BT-549 breast, 2.06 µM with SNB-19 CNS and 1.5 µM in the assay with 786-0 renal. For the same molecule, the TGI stood at 3.72 µM in the assay with NCI-H460 lung; 2.78 µM in the assay on T-47D breast; 3.29 µM in the assay on KM12 colon; 5.84 µM in the assay on MOLT-4 leukemia; 3.25 µM in the assay with PC-3 prostate; 3.35 µM in the assay with EKVX NSCLC. Moreover, the TGI worked out at 3.68 µM in the assay with UACC-62 melanoma, 3.07 µM with BT-549 breast, 4.16 µM in the assay with SNB-19 CNS and 2.83 µM in the assay with 786-0 renal.

For the molecule `Cc1cc(C)n(C(=O)c2nn(-c3ccc(Cl)cc3)cc2O)n1`, the GI50 in the assay with NCI-H460 lung is 2.38 µM; in the assay with T-47D breast it was 3.67 µM; with KM12 colon, 5.07 µM; in the assay on PC-3 prostate, 7.05 µM; in the assay on EKVX NSCLC, 4.87 µM; in the assay on UACC-62 melanoma it was 3.46 µM. Further, the GI50 was 2.19 µM with BT-549 breast, 3.6 µM in the assay on SNB-19 CNS and 9.64 µM in the assay on 786-0 renal. Moreover, the TGI in the assay with NCI-H460 lung was 6.04 µM; in the assay with T-47D breast, greater than 100 µM; with KM12 colon, greater than 100 µM; in the assay on PC-3 prostate it was greater than 100 µM; with EKVX NSCLC, greater than 100 µM; in the assay on UACC-62 melanoma, 18.6 µM. Further, the TGI with BT-549 breast was 26.3 µM; in the assay with SNB-19 CNS it was greater than 100 µM; in the assay with 786-0 renal, greater than 100 µM.

`OCC#Cc1ccccc1C#Cc1ccc(C#Cc2ccccc2C#CCO)s1`: the GI50 was 24.7 µM in the assay with NCI-H460 lung; 17.3 µM in the assay on T-47D breast; 15.1 µM with KM12 colon; 14.8 µM in the assay on PC-3 prostate; 19.9 µM in the assay with EKVX NSCLC; 19.5 µM in the assay with UACC-62 melanoma. Also, the GI50 with BT-549 breast was 16.8 µM; in the assay on SNB-19 CNS, 22.1 µM; with 786-0 renal, 19.3 µM. The TGI in the assay with NCI-H460 lung is 91.5 µM; in the assay on T-47D breast, 53.8 µM; in the assay on KM12 colon, 30.6 µM; in the assay on PC-3 prostate it was 28.7 µM; in the assay with EKVX NSCLC, 43.1 µM; in the assay on UACC-62 melanoma, 43.4 µM. Moreover, the TGI with BT-549 breast stood at 33.8 µM; with SNB-19 CNS, 42.7 µM; with 786-0 renal, 37.7 µM.
